Experimental data reported in patent US9884063B2, “Amido-substituted azole compounds” (Bayer Pharma Aktiengesellschaft, priority 2014, dated 2018).

Key:
TNKS1 = target: T1, TNKS1 (Homo sapiens, UniProt O95271); assay: Modified TNKS1 Assay 3 (BPS kit #80573, biotin-NAD+, 96 well); assay type: biochemical; settings: human TNKS1, BPS kit #80573, 96 well
T1 sequence (O95271 1-1327): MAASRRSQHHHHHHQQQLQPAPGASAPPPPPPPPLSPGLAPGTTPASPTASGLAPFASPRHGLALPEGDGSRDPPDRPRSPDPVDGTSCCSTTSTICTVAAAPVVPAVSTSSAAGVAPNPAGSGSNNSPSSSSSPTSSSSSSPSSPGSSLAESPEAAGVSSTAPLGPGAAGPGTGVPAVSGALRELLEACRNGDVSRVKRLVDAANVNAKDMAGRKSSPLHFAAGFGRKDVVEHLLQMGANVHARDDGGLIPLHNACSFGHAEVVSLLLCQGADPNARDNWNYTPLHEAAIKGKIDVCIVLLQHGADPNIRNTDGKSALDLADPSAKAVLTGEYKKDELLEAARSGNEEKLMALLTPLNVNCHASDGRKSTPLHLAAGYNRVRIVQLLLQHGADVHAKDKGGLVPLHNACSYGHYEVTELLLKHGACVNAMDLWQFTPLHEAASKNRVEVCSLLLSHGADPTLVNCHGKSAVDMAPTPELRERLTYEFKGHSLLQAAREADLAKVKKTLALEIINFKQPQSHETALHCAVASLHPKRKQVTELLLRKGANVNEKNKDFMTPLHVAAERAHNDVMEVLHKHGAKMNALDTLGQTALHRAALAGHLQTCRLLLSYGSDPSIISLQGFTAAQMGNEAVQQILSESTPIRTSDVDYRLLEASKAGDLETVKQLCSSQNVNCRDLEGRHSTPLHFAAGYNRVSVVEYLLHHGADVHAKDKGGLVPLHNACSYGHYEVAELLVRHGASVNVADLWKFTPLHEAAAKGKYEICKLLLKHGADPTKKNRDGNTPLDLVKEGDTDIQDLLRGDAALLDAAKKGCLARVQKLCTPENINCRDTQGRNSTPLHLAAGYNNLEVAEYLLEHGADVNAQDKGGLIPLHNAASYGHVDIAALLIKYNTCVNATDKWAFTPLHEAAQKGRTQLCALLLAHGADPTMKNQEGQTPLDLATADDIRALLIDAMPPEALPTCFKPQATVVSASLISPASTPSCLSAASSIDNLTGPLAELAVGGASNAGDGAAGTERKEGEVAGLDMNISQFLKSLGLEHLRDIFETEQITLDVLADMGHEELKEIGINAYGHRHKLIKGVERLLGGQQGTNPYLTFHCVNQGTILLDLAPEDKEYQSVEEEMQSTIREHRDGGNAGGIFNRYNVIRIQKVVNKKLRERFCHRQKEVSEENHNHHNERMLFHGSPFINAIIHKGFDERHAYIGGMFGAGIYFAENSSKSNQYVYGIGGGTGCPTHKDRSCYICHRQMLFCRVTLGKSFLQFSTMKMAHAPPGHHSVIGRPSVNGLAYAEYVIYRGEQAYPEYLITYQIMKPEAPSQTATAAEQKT
How it was run: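 Chemiluminescent assay of TNKS1-catalysed ribosylation of a protein substrate with biotin-labelled NAD+, detected via streptavidin-HRP; run per kit protocol. Inhibition lowers the signal, and IC50 is the compound concentration halving the normalised readout.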

[1] = tested on: HEK293 FOP control reporter cell line; assay: HEK293 FOP Assay (FOP control vector luciferase reporter); assay type: cell-based; settings: Homo sapiens; HEK293 FOP control reporter cell line, 16 hours incubation, compound dilution series 50 μM to 15 nM
How it was run: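 Compound series 50 μM to 15 nM, 3.16-fold steps, were diluted in CAFTY buffer (pH 7.4, 2 mM Ca2+, 0.01% BSA) and tested alongside the TOP reporter line. Human Wnt-3a was added at 2500–5 ng/ml in two-fold steps. The control HEK293 line stably holds an FOP vector whose TCF elements are randomized and non-functional.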

Row | SMILES | IC50 (TNKS1) | IC50 [1]
1 | CNC(=O)c1nc[nH]c1C(=O)Nc1ccc(NC(=O)c2ccccc2Cl)c(OC)c1 [Example 99, N^5-{4-[(2-chlorobenzoyl)amino]-3-methoxyphenyl}-N^4-methyl-1H-imidazole-4,5-dicarboxamide] | > 0.5 µM | –
2 | CNCCNC(=O)c1[nH]cnc1C(=O)Nc1ccc(NC(=O)c2ccc(F)cc2Cl)cc1 [Example 287, N^4-{4-[(2-chloro-4-fluorobenzoyl)amino]phenyl}-N^5-[2-(methylamino)ethyl]-1H-imidazole-4,5-dicarboxamide] | 0.08 µM | –
3 | CC(C)c1nc(C(=O)Nc2ccc(NC(=O)c3ccc(F)cc3Cl)cc2)c(C(=O)NCCN2CCCCC2)[nH]1 [Example 108, N^4-{4-[(2-chloro-4-fluorobenzoyl)amino]phenyl}-2-isopropyl-N^5-[2-(piperidin-1-yl)ethyl]-1H-imidazole-4,5-dicarboxamide] | 0.46 µM | –
4 | CNC(=O)c1nc[nH]c1C(=O)Nc1ccc(NC(=O)c2ccc(C#N)cc2F)cc1 [Example 369, N^5-{4-[(4-cyano-2-fluorobenzoyl)amino]phenyl}-N^4-methyl-1H-imidazole-4,5-dicarboxamide] | 0.26 µM | –
5 | CNC(=O)c1nc[nH]c1C(=O)Nc1ccc(NC(=O)c2ccc(OC)cc2Cl)cc1 [Example 246, N^5-{4-[(2-chloro-4-methoxybenzoyl)amino]phenyl}-N^4-methyl-1H-imidazole-4,5-dicarboxamide] | > 0.5 µM | –
6 | NC(=O)c1nc[nH]c1C(=O)Nc1ccc(NC(=O)c2ccccc2Cl)cc1 [Example 120, N^5-{4-[(2-chlorobenzoyl)amino]phenyl}-1H-imidazole-4,5-dicarboxamide] | > 0.5 µM | –
7 | CC(C)NCCNC(=O)c1[nH]cnc1C(=O)Nc1ccc(NC(=O)c2ccc(F)cc2Cl)cc1 [Example 288, N^4-{4-[(2-chloro-4-fluorobenzoyl)amino]phenyl}-N^5-[2-(isopropylamino)ethyl]-1H-imidazole-4,5-dicarboxamide] | 0.03 µM | –
8 | CCc1nc(C(=O)Nc2ccc(NC(=O)c3ccc(F)cc3Cl)cc2)c(C(=O)NCCN(C)C)[nH]1 [Example 69, N^4-{4-[(2-chloro-4-fluorobenzoyl)amino]phenyl}-N^5-[2-(dimethylamino)ethyl]-2-ethyl-1H-imidazole-4,5-dicarboxamide] | 0.05 µM | –
9 | O=C(Nc1ccc(NC(=O)c2nc[nH]c2C(=O)NCC2CCOCC2)cc1)c1ccc(F)cc1Cl [Example 233, N^4-{4-[(2-chloro-4-fluorobenzoyl)amino]phenyl}-N^5-(tetrahydro-2H-pyran-4-ylmethyl)-1H-imidazole-4,5-dicarboxamide] | 0.48 µM | –
10 | CC(CN1CCOCC1)NC(=O)c1[nH]cnc1C(=O)Nc1ccc(NC(=O)c2ccc(F)cc2Cl)cc1 (single isomer, unassigned; enantiomer 1) [Example 269, N^4-{4-[(2-chloro-4-fluorobenzoyl)amino]phenyl}-N^5-[1-(morpholin-4-yl)propan-2-yl]-1H-imidazole-4,5-dicarboxamide (enantiomer 1)] | 0.08 µM | –
11 | CNC(=O)c1[nH]c(C(C)C)nc1C(=O)Nc1ccc(NC(=O)c2ccc(F)cc2Cl)cc1 [Example 106, N^4-{4-[(2-chloro-4-fluorobenzoyl)amino]phenyl}-2-isopropyl-N^5-methyl-1H-imidazole-4,5-dicarboxamide] | – | 13 µM
12 | CC(CN1CCOCC1)NC(=O)c1[nH]cnc1C(=O)Nc1ccc(NC(=O)c2ccc(F)cc2)cc1 (single isomer, unassigned; enantiomer 1) [Example 295, N^4-{4-[(4-fluorobenzoyl)amino]phenyl}-N^5-[1-(morpholin-4-yl)propan-2-yl]-1H-imidazole-4,5-dicarboxamide (enantiomer 1)] | > 0.5 µM | –
13 | CC(C)(N)CNC(=O)c1ncoc1C(=O)Nc1ccc(NC(=O)c2ccc(F)cc2Cl)cc1 [Example 219, N^4-(2-amino-2-methylpropyl)-N^5-{4-[(2-chloro-4-fluorobenzoyl)amino]phenyl}-1,3-oxazole-4,5-dicarboxamide] | > 0.5 µM | –
14 | O=C(Nc1ccc(NC(=O)c2nc[nH]c2C(=O)NCCN2CCC[C@H](O)C2)cc1)c1ccc(F)cc1Cl [Example 271, N^4-{4-[(2-chloro-4-fluorobenzoyl)amino]phenyl}-N^5-{2-[(3S)-3-hydroxypiperidin-1-yl]ethyl}-1H-imidazole-4,5-dicarboxamide] | 0.006 µM | –
15 | COC(=O)c1nc[nH]c1C(=O)Nc1ccc(NC(=O)c2ccccc2Cl)c(C)c1 [Example 86, methyl-5-({4-[(2-chlorobenzoyl)amino]-3-methylphenyl}carbamoyl)-1H-imidazole-4-carboxylate] | – | 23 µM

More lines, main results first:

Row | IC50 (TNKS1) | SMILES | IC50 [1]
16 | 0.26 µM | CCNC(=O)c1[nH]cnc1C(=O)Nc1ccc(NC(=O)c2ccc(F)cc2Cl)cc1 [Example 138, N^4-{4-[(2-chloro-4-fluorobenzoyl)amino]phenyl}-N^5-ethyl-1H-imidazole-4,5-dicarboxamide] | –
17 | > 0.5 µM | CC(CN1CCOCC1)NC(=O)c1[nH]cnc1C(=O)Nc1ccc(NC(=O)c2ccc(F)cc2)cc1 (single isomer, unassigned; enantiomer 2) [Example 296, N^4-{4-[(4-fluorobenzoyl)amino]phenyl}-N^5-[1-(morpholin-4-yl)propan-2-yl]-1H-imidazole-4,5-dicarboxamide (enantiomer 2)] | –
18 | 0.07 µM | CC(C)(N)CCNC(=O)c1[nH]cnc1C(=O)Nc1ccc(NC(=O)c2ccc(F)cc2Cl)cc1 [Example 286, N^5-(3-amino-3-methylbutyl)-N^4-{4-[(2-chloro-4-fluorobenzoyl)amino]phenyl}-1H-imidazole-4,5-dicarboxamide] | –
19 | > 0.5 µM | O=C(Nc1ccc(NC(=O)c2nc[nH]c2C(=O)NCC2CCCO2)cc1)c1ccc(F)cc1Cl (stereo not shown) [Example 237, N^4-{4-[(2-chloro-4-fluorobenzoyl)amino]phenyl}-N^5-(tetrahydrofuran-2-ylmethyl)-1H-imidazole-4,5-dicarboxamide] | –
20 | 0.27 µM | O=C(Nc1ccc(NC(=O)c2nc[nH]c2C(=O)NCC2CCOC2)cc1)c1ccc(F)cc1Cl (stereo not shown) [Example 235, N^4-{4-[(2-chloro-4-fluorobenzoyl)amino]phenyl}-N^5-(tetrahydrofuran-3-ylmethyl)-1H-imidazole-4,5-dicarboxamide] | –
21 | > 0.5 µM | CC(C)(O)CNC(=O)c1[nH]cnc1C(=O)Nc1ccc(NC(=O)c2ccc(F)cc2Cl)cc1 [Example 223, N^4-{4-[(2-chloro-4-fluorobenzoyl)amino]phenyl}-N^5-(2-hydroxy-2-methylpropyl)-1H-imidazole-4,5-dicarboxamide] | –
22 | 0.06 µM | CC(C)(N)CNC(=O)c1[nH]cnc1C(=O)Nc1ccc(NC(=O)c2ccc(F)cc2Cl)cc1 [Example 280, N^5-(2-amino-2-methylpropyl)-N^4-{4-[(2-chloro-4-fluorobenzoyl)amino]phenyl}-1H-imidazole-4,5-dicarboxamide] | –
23 | 0.02 µM | CCc1nc(C(=O)Nc2ccc(NC(=O)c3ccc(F)cc3Cl)cc2)c(C(=O)NCCN2CCCCC2)[nH]1 [Example 70, N^4-{4-[(2-chloro-4-fluorobenzoyl)amino]phenyl}-2-ethyl-N^5-[2-(piperidin-1-yl)ethyl]-1H-imidazole-4,5-dicarboxamide] | –
24 | 0.02 µM | CN(C)CCNC(=O)c1nc[nH]c1C(=O)Nc1ccc(NC(=O)c2ccc(S(C)(=O)=O)cc2Cl)cc1 [Example 54, N^5-(4-{[2-chloro-4-(methylsulfonyl)benzoyl]amino}phenyl)-N^4-[2-(dimethylamino)ethyl]-1H-imidazole-4,5-dicarboxamide] | –
25 | 0.17 µM | O=C(Nc1ccc(NC(=O)c2nc[nH]c2C(=O)NCCN2CC[C@@H](F)C2)cc1)c1ccc(F)cc1Cl [Example 231, N^4-{4-[(2-chloro-4-fluorobenzoyl)amino]phenyl}-N^5-{2-[(3R)-3-fluoropyrrolidin-1-yl]ethyl}-1H-imidazole-4,5-dicarboxamide] | –
